# From paper PMC12073449, “Development of a Mechanism of Action-Reflective Cell-Based Reporter Gene Assay for Measuring Bioactivities of Therapeutic Glucagon-like Peptide-2 Analogues” (Molecules, 2025)
# Ends that are not written are not given here.
# Key:
# human GLP-2R = biological target: T1, human GLP-2R (Homo sapiens, UniProt O95838); assay: Cell-based reporter gene assay (RGA), HEK293-GLP-2R-Luc, CRE-luciferase; conditions: diluted to 2.665 µmol/L and further 7-fold for 10 concentration points; HEK293-GLP-2R-Luc cells
# T1 construct: The full-length cDNA of human GLP-2R was synthesized, cloned, and inserted into the pLU.cmv.Zeo vector; expressed in transfected cells
# T1 sequence (O95838 1-553): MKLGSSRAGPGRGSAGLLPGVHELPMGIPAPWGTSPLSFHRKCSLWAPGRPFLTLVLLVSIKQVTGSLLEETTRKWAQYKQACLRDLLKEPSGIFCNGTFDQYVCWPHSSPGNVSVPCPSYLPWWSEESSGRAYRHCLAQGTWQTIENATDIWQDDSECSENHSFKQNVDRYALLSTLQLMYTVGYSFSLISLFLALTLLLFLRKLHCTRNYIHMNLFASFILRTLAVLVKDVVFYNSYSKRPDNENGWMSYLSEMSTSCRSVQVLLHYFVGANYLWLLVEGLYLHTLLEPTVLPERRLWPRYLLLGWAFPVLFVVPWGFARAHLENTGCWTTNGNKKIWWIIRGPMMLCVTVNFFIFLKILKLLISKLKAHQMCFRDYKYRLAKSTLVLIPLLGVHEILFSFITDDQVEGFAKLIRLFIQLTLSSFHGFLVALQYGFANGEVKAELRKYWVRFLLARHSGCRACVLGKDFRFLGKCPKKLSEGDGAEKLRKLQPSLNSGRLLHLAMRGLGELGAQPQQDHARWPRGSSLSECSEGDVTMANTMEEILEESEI
# Experimental: To generate a HEK293 cell line stably expressing CRE-driven luciferase and GLP2R, the CRE-miniP.Luc virus-containing cell supernatants were diluted in DMEM in the presence of 8 µg/mL polybrene before being added to HEK293 cells. To obtain a stable cell pool, the medium was replaced 48 h after incubation, with fresh culture medium containing 3 µg/mL puromycin. After about 3 weeks selection, the cell pool was then further infected with pLU.cmv-GLP2R.Zeo virus and selected with 200 µg/mL Zeocin and 3 µg/mL puromycin. […] The expression of GLP-2R was examined using flow cytometry. After that, the positive clones were routinely maintained in selective medium.
# Cell-based RGA has been described previously. Briefly, 50 microliters of HEK293-GLP-2R-Luc cells were seeded into a 96-well white plate at a density of 4 × 10^4 cells/well. The cells were then incubated at 37 °C with 5% CO2 overnight (16 to 24 h). […] After 5 h of incubation, 100 µL of britelite plus reporter Gene Assay reagent were added to each well and mixed thoroughly under subdued light conditions for 5 min. The RLU signal was then determined with a SpectraMax M5e multimode plate reader (Molecular Devices, San Jose, CA, USA).
# The RGA was validated as described previously. […] Samples of each potency level were tested by two analysts 8 times in total. […] The response of HEK293-GLP2R-Luc cells to these samples were determined as illustrated in 4.6.
# The lower/upper asymptote was determined by the ratio of the top asymptote to the bottom asymptote when RGA best fit the 4PL model. The correlation coefficient (R^2), deviations from parallelism, and the regression in the 4PL model were estimated using SoftMax® Pro 7.1 software (Molecular Devices, San Jose, CA, USA). Specifically, a linear regression with an R^2 value no less than 0.98 was considered to have a very good fit. Additionally, a p-value below 0.01 was regarded as statistically significant. […] All the dose-response curves were plotted using GraphPad Prism® software 8.0.2 (GraphPad, Boston, MA, USA).
# [1] = parameters: method as in PMID 35933503; conditions: general statement; cited from earlier work
# Text: The diverse functions of GLP-2 highlight its significance in maintaining intestinal health and physiology. As a naturally occurring gut hormone, GLP-2 not only promotes nutrient absorption by decreasing intestinal motility and permeability, but also plays a pivotal role in stimulating intestinal epithelial cell growth and function. This multifaceted action of GLP-2 is crucial for the maintenance of the intestinal barrier, which is essential for preventing the translocation of harmful bacteria and toxins into the bloodstream.
substance,measurement,setting,value
HGEGTFSSELATILDALAARDFINWLIATKITDKKKKKK-NH2 [glepaglutide],dose-response curve in RGA,human GLP-2R,induced sigmoid curves similar to those induced by teduglutide
same,bioactivity,[1],enhanced bioactivities
same,half-life,[1],extended half-lives
